Source: patent US20250206722A1, “SMALL MOLECULE INHIBITORS OF TEA DOMAIN FAMILY MEMBERS” (The Scripps Research Institute, priority 2022, published 2025)

Assays:
Type in all cases: cell-based
[1] = tested on: NCI-H226 cells; test: NCI-H226 proliferation assay (in house); settings: Homo sapiens, 120 h, 5 days, Cell TiterGlo, 20-point 1:2 dilution from 20 μM
Method in brief: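 Viability by CellTiter-Glo luminescence after 5-day compound exposure at 37 °C, 5% CO2. Compounds added 24 h post-seeding (500 cells/well, RPMI 1640 with 10% FBS) as 20-point, 2-fold series from 20 μM final, triplicate wells.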

[2] = tested on: transcriptional activity of TEADs; test: TEAD reporter assay (MCF7 TEAD-LUC reporter cells); settings: Homo sapiens, 24 hours, BrightGlo luminescence
Method in brief: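 Luminescence (BrightGlo) was read after 24 h of compound treatment at 37 °C, 5 % CO2. Cells had been seeded at 5,000 per well in DMEM with 10 % FBS and insulin and rested 24 h first. Dosing used 20 points, 1:2 dilution from 20 μM final, triplicates.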

[3] = tested on: IMR32 cells; test: IMR32 cytotoxicity assay; settings: Homo sapiens, IMR-32, 72 h, 3 days, Cell TiterGlo
Procedure: IMR32 cells were obtained from American Type Culture Collection (ATCC, CCL-127) and cultured in DMEM (Corning, 10-013-CV) supplemented with 10% fetal bovine serum (Gibco, 10438-026) and 1% penicillin-streptomycin (Gibco, 15070063). Cells were trypsinized, resuspended in growth medium, and diluted to a concentrated of 20,000 cells/mL. 1,000 cells, 50 μL of cell suspension, per well were then plated in a white 384-well plate (Corning) and incubated at 37° C., 5% CO2. After 24 hours incubation, 100 nL of test compounds in DMSO, 20-point 1:2 dilution starting from 20 μM (final concentration) in triplicate, were transferred to each well using an Agilent Bravo instrument outfitted with a pintool head. Cells were incubated at 37° C., 5% CO2 for 3 days followed by the addition of 30 μL of Cell TiterGlo (Promega; diluted 1:6 in water) to each well and luminescence values recorded using an EnVision plate reader. […]

Row | IC50 [1] | IC50 [2] | SMILES | IC50 [3]
1 | 0.017 µM | 5 nM | C=CC(=O)N1CCN(c2cccnc2Nc2ccc(C(F)(F)F)cc2)CC1 [Example 143, 1-[4-(2-{[4-(trifluoromethyl)phenyl]amino}pyridin-3-yl)piperazin-1-yl]prop-2-en-1-one] | 20000 nM
2 | 8.48 µM | 49.3 nM | C=CC(=O)N1CCC(Nc2nccnc2Nc2ccc(C(F)(F)F)cc2)C1 (stereo not drawn) [Example 8, 1-(3-((3-((4-(trifluoromethyl)phenyl)amino)pyrazin-2-yl)amino)pyrrolidin-1-yl)prop-2-en-1-one] | > 5000 nM
3 | > 1 µM | 19.9 nM | C=CC(=O)N1CCN(c2nccnc2Nc2cccc(C(F)(F)F)c2)CC1 [Example 30, 1-(4-(3-((3-(trifluoromethyl)phenyl)amino)pyrazin-2-yl)piperazin-1-yl)prop-2-en-1-one] | > 10000 nM
4 | 0.173 µM | 267 nM | O=C(CCl)N1CCN(c2nccnc2Nc2ccc(C(F)(F)F)cc2)CC1 [Example 170, 2-chloro-1-(4-(3-((4-(trifluoromethyl)phenyl)amino)pyrazin-2-yl)piperazin-1-yl)ethan-1-one] | 760 nM
5 | 0.27 µM | 25.9 nM | C=CC(=O)N1CCN(c2nccnc2Nc2ccc(C(F)(F)F)cc2)C[C@@H]1CC#N [Example 22, (S)-2-(1-acryloyl-4-(3-((4-(trifluoromethyl)phenyl)amino)pyrazin-2-yl)piperazin-2-yl)acetonitrile] | 15000 nM
6 | 2.52 µM | 258 nM | C=CC(=O)N1CCN(c2nccc(Nc3ccc(C(F)(F)F)cc3)n2)CC1 [Example 125, 1-[4-(4-{[4-(trifluoromethyl)phenyl]amino}pyrimidin-2-yl)piperazin-1-yl]prop-2-en-1-one] | 7060 nM
7 | 0.023 µM | 2.24 nM | C=CC(=O)N1CCN(c2ncccc2Nc2ccc(C(F)(F)F)cc2)CC1 [Example 134, 1-[4-(3-{[4-(trifluoromethyl)phenyl]amino}pyridin-2-yl)piperazin-1-yl]prop-2-en-1-one] | > 10000 nM
8 | 1.78 µM | 17.9 nM | C=CC(=O)NCCOc1nccnc1Nc1ccc(C(F)(F)F)cc1 [Example 192, N-(2-((3-((4-(trifluoromethyl)phenyl)amino)pyrazin-2-yl)oxy)ethyl)acrylamide] | > 20000 nM
9 | 0.059 µM | 4.67 nM | C=CC(=O)N1CCN(c2nccnc2Nc2ccc(Cl)cc2)CC1 [Example 32, 1-(4-(3-((4-chlorophenyl)amino)pyrazin-2-yl)piperazin-1-yl)prop-2-en-1-one] | 20000 nM
10 | 0.252 µM | 468 nM | N#CN1CCN(c2nccnc2Nc2ccc(C(F)(F)F)cc2)CC1 [Compound 2, 4-(3-{[4-(trifluoromethyl)phenyl]amino}pyrazin-2-yl)piperazine-1-carbonitrile] | > 20000 nM
11 | > 10 µM | 487 nM | CC(=O)N1CCN(c2nccnc2Nc2ccc(C(F)(F)F)cc2)CC1 [Example 168, 1-(4-(3-((4-(trifluoromethyl)phenyl)amino)pyrazin-2-yl)piperazin-1-yl)ethan-1-one] | > 20000 nM
12 | > 14 µM | 11400 nM | C=CC(=O)NCC1CCCN(c2nccnc2Nc2ccc(C(F)(F)F)cc2)C1 (stereo not drawn) [Example 10, N-((1-(3-((4-(trifluoromethyl)phenyl)amino)pyrazin-2-yl)piperidin-3-yl)methyl)acrylamide] | 10000 nM
13 | > 10 µM | 29.6 nM | C=CC(=O)NC1CCN(c2nccnc2Nc2ccc(C(F)(F)F)cc2)CC1 [Example 9, N-(1-(3-((4-(trifluoromethyl)phenyl)amino)pyrazin-2-yl)piperidin-4-yl)acrylamide] | 10000 nM
14 | 0.047 µM | 4.3 nM | C=CC(=O)N(C)CCOc1nccnc1Nc1ccc(C(F)(F)F)cc1 [Example 191, N-methyl-N-(2-((3-((4-(trifluoromethyl)phenyl)amino)pyrazin-2-yl)oxy)ethyl)acrylamide] | 10000 nM
